Test results taken from patent publication US6653081B2, “Methods for monitoring antiretroviral therapy and guiding therapeutic decision in the treatment of HIV/AIDS” (ViroLogic, Inc., priority 2000, dated 2003).

Tests used:
RTV-011073 = experiment: Phenotypic susceptibility assay, RTV-011073; format: cell-based, HIV; details: patient 011073; for decrease in susceptibility: V241S, K103N, I135T
From the text: The resistance test vectors containing a functional luciferase gene cassette were constructed and host cells were transfected with the resistance test vector DNA. The resistant test vectors contained patient-derived reverse transcriptase and protease sequences that were either susceptible or resistant to the antiretroviral agents, such as nucleoside reverse transcriptase inhibitors, (NRTIs) non-nucleoside reverse transcriptase inhibitors […] protease inhibitors. The resistance test vector viral particles produced by transfecting the resistance test vector DNA into host cells, either in the presence or absence of PRIs, were used to infect target host cells grown either in the absence of NRTIs or NNRTIs, or in the presence of increasing concentrations of the drug. The amount of luciferase activity produced in infected target host cells in the presence of varying concentrations of drug was compared to the amount of luciferase produced in infected target host cells in the absence of drug. “Drug resistance” was measured as the amount of drug required to inhibit by 50% the luciferase activity detected in the absence of drug (inhibitory concentration 50%, IC50). The IC50 values were determined by plotting percent drug inhibition vs. log10 drug concentration. Stimulation of viral replication was measured as the percent increase in luciferase activity detected when infection occurs in the presence of drug as compared to in the absence of drug.
Host cells were seeded in 10-cm-diameter dishes and were transfected several days after plating with resistance test vector plasmid DNA and the envelope expression vector. Transfections were performed using a calcium-phosphate precipitation procedure. The cell culture media containing the DNA precipitate was replaced with fresh medium, from one to 24 hours, after transfection. Cell culture media containing resistance test vector viral particles was harvested one to four days after transfection and was passed through a […] filter before being used to infect target host cells, or being stored at −80° C. HIV capsid protein (p24) levels in the harvested cell culture media were determined by an EIA method as described by the manufacturer (SAIC; Frederick, Md.). Before infection, target cells (293 and 293/T) were plated in cell culture media. Control infections were performed using cell culture media from mock transfections (no DNA) or transfections containing the resistance test vector plasmid DNA without the envelope expression plasmid. One to three or more days after infection, the media was removed and cell lysis buffer (Promega) was added to each well. Cell lysates were assayed for luciferase activity (FIG. 3). The inhibitory effect of the drug was determined using the following equation:
% luciferase inhibition=1−(RLUluc[drug]÷RLUluc)×100
where RLUluc [drug] is the Relative Light Unit of luciferase activity in infected cells in the presence of drug, and RLUluc is the Relative Light Unit of luciferase activity in infected cells in the absence of drug. IC50values were obtained from the sigmoidal curves that were generated from the data by plotting the percent inhibition of luciferase activity vs. the log10 drug concentration. The percent luciferase stimulation is the negative of the % inhibition calculated using the formula above.
A resistance test vector was constructed as described in Example 1 from a virus sample obtained from patient 011073. The prior and current treatment regimens are unknown. Isolation of viral RNA and RT/PCR was used to generate a patient derived segment (PDS) that comprised viral sequences coding for all of PR and aa 1-313 of RT. The PDS was inserted into an indicator gene viral vector to generate a resistance test vector designated RTV-011073. RTV-011073 was then tested in a phenotypic assay to determine accurately and quantitatively the level of susceptibility to a panel of anti-retroviral drugs. […]

RTV-309-3 = experiment: Phenotypic susceptibility assay, RTV-309-3; format: cell-based, HIV; details: single clone from the RTV-309 pool
From the text: The resistance test vectors containing a functional luciferase gene cassette were constructed and host cells were transfected with the resistance test vector DNA. The resistant test vectors contained patient-derived reverse transcriptase and protease sequences that were either susceptible or resistant to the antiretroviral agents, such as nucleoside reverse transcriptase inhibitors, (NRTIs) non-nucleoside reverse transcriptase inhibitors […] protease inhibitors. The resistance test vector viral particles produced by transfecting the resistance test vector DNA into host cells, either in the presence or absence of PRIs, were used to infect target host cells grown either in the absence of NRTIs or NNRTIs, or in the presence of increasing concentrations of the drug. The amount of luciferase activity produced in infected target host cells in the presence of varying concentrations of drug was compared to the amount of luciferase produced in infected target host cells in the absence of drug. […] The IC50 values were determined by plotting percent drug inhibition vs. log10 drug concentration. Stimulation of viral replication was measured as the percent increase in luciferase activity detected when infection occurs in the presence of drug as compared to in the absence of drug.
(§1) Host cells were seeded in 10-cm-diameter dishes and were transfected several days after plating with resistance test vector plasmid DNA and the envelope expression vector. […] HIV capsid protein (p24) levels in the harvested cell culture media were determined by an EIA method as described by the manufacturer (SAIC; Frederick, Md.). […] The inhibitory effect of the drug was determined using the following equation: […]
where RLUluc [drug] is the Relative Light Unit of luciferase activity in infected cells in the presence of drug, and RLUluc is the Relative Light Unit of luciferase activity in infected cells in the absence of drug. […] The percent luciferase stimulation is the negative of the % inhibition calculated using the formula above. […]

[1] = system: Patient-derived resistance test vectors containing mutations at 241 in addition to other NNRTI-resistance mutations; experiment: Phenotypic susceptibility assay, patient-derived RTVs with mutations at 241; format: cell-based, HIV; details: 241 plus e.g. 101, 103, 106, 135, 138, 190
From the text: The resistance test vectors containing a functional luciferase gene cassette were constructed and host cells were transfected with the resistance test vector DNA. The resistant test vectors contained patient-derived reverse transcriptase and protease sequences that were either susceptible or resistant to the antiretroviral agents, such as nucleoside reverse transcriptase inhibitors, (NRTIs) non-nucleoside reverse transcriptase inhibitors (NRTIs) and protease inhibitors. […] The IC50 values were determined by plotting percent drug inhibition vs. log10 drug concentration. Stimulation of viral replication was measured as the percent increase in luciferase activity detected when infection occurs in the presence of drug as compared to in the absence of drug.
as §1

codon 181 mutant HIV-1 = details: cited from earlier work
viral load = experiment: Viral load measurements in patient (Example 14); format: in vivo
P236L substitution RT = P236L substitution RT (Human immunodeficiency virus type 1 group M subtype B, UniProt P04585, P823L); details: cited from earlier work

SMILES | drug-dependent stimulation of viral replication (RTV-011073) [%] | decrease in susceptibility (RTV-011073) [fold] | reduction in susceptibility (RTV-309-3) | reductions in susceptibility [1] [fold] | susceptibility / activity in the presence of the Y181C mutation (codon 181 mutant HIV-1) | viral load after removal of nevirapine from the regimen (viral load; patient on d4T, nevirapine, nelfinavir, saquinavir, baseline ~1,200,000 copies/ml) | reduction in viral load after removal of nevirapine from the regimen (viral load; same patient) [fold] | reduction in sensitivity (codon 181 mutant HIV-1; Y181C mutation) [fold] | reduction of the IC50 (P236L substitution RT)
CC(C)Nc1cccnc1N1CCN(C(=O)c2cc3cc(NS(C)(=O)=O)ccc3[nH]2)CC1 [delavirdine] | ~90 | > 250 | wild type pattern of susceptibility | – | – | – | – | – | –
O=C1Nc2ccc(Cl)cc2[C@@](C#CC2CC2)(C(F)(F)F)O1 [efavirenz] | ~80 | > 450 | wild type pattern of susceptibility | > 470 | retains activity | – | – | – | –
Cc1ccnc2c1NC(=O)c1cccnc1N2C1CC1 [nevirapine] | ~70 | > 600 | 3 fold | > 600 | – | < 300,000 copies/ml | 4 | 100 | 7- to 10 fold
